Measurements: ChEMBL document CHEMBL1145169, “Discovery of substituted maleimides as liver X receptor agonists and determination of a ligand-bound crystal structure” (J Med Chem, 2005)
Values joined by “and” are separate entries in the source; they are usually repeats but may differ in a detail not shown here. Equal entries are not always repeated.

Tests used:
[1] = target: Glycogen synthase kinase-3 beta (Homo sapiens, UniProt P49841); assay: Inhibition of human GSK3-beta
[2] = target: T1, Oxysterols receptor LXR-alpha (Homo sapiens, UniProt Q13133); assay: Effective concentration for Steroid receptor coactivator-1 (SRC1) recruitment to human LXRalpha (Liver X receptor)
T1 sequence (Q13133 whole entry): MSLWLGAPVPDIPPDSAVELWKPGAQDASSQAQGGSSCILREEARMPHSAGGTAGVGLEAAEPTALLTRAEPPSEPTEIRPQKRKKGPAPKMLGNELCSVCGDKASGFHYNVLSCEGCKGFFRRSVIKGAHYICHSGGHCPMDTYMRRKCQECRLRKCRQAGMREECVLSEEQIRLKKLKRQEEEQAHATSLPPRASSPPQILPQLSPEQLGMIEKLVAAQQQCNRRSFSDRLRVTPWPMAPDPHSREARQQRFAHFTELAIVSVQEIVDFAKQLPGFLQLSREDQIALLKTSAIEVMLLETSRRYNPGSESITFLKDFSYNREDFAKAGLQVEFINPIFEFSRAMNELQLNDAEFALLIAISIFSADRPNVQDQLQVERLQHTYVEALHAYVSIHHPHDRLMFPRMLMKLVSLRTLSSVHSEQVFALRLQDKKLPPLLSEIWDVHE

[3] = target: T2, Oxysterols receptor LXR-alpha (Homo sapiens) (UniProt Q13133)
T2 sequence (whole entry): T1 sequence (Q13133 whole entry)
Description: Relative efficacy for Steroid receptor coactivator-1 (SRC1) recruitment to human LXRalpha compared to GW-3965

[4] = target: T3, Oxysterols receptor LXR-beta (Homo sapiens, UniProt P55055); assay: Effective concentration for Steroid receptor coactivator-1 (SRC1) recruitment to human LXRbeta (Liver X receptor)
T3 sequence (P55055 whole entry): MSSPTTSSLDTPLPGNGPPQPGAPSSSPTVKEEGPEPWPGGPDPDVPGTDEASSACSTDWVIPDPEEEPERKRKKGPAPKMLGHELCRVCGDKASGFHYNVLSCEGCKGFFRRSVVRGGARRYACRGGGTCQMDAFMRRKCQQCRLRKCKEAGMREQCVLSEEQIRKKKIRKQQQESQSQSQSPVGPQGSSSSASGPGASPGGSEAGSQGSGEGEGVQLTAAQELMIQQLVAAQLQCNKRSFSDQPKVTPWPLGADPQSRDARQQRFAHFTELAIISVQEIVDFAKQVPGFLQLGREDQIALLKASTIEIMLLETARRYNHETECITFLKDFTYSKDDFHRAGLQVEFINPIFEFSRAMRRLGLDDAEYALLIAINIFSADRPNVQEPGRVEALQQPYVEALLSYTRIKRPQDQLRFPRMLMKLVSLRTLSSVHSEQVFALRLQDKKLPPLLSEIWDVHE

[5] = Effective concentration in human ATP binding cassette transporter A1 (ABCA1) transcriptional activation assay
[6] = target: T4, Oxysterols receptor LXR-beta (Homo sapiens) (UniProt P55055); assay: Relative efficacy in Steroid receptor coactivator-1 (SRC1) recruitment to human LXRbeta compared to GW-3965
T4 sequence (whole entry): T3 sequence (P55055 whole entry)

Glycogen synthase kinase-3 beta, sequence (P49841 whole entry): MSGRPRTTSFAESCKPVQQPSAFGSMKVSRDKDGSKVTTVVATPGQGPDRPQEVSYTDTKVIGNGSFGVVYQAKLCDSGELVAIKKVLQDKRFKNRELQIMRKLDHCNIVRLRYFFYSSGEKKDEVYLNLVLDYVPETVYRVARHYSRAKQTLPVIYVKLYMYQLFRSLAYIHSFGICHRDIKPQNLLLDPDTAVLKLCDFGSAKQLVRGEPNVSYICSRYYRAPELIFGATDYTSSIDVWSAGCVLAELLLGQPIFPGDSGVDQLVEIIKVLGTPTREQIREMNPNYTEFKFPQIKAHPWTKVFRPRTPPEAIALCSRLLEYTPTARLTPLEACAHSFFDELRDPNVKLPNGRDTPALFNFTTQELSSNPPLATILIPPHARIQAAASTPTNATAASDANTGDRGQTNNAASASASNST

IC50 [1] | RE (Homo sapiens) | EC50 [2] | RE [3] | EC50 [4] | EC50 [5] | RE [6] | Compound
> 2000 nM | 1.4 | 575 nM | 0.9 | 300 nM | 840 nM | – | COc1ccc(NC2=C(c3ccccc3)C(=O)N(C)C2=O)cc1
– | 1 | 80 nM | 1 | – | 170 nM | 1 | O=C(O)Cc1cccc(OCCCN(Cc2cccc(C(F)(F)F)c2Cl)CC(c2ccccc2)c2ccccc2)c1
> 5000 nM | 0.9 | 50 nM | 0.9 | 40 nM | 80 nM | – | COc1ccc(NC2=C(c3ccccc3)C(=O)N(Cc3ccccc3)C2=O)cc1
> 5000 nM | 0.5 | 890 nM | 0.7 | 560 nM | 1790 nM | – | CCN1C(=O)C(Nc2ccccc2)=C(c2ccccc2)C1=O
> 5000 nM | 0.6 | 100 nM | 0.3 and 0.5 | 70 nM | 1320 nM | – | O=C1C(Nc2ccccc2)=C(c2ccccc2)C(=O)N1Cc1ccccc1
> 5000 nM | 0.7 | 275 nM | 0.7 and 0.6 | 260 nM | 1120 nM | – | COc1ccc(NC2=C(c3ccccc3)C(=O)N(c3ccccc3)C2=O)cc1
> 5000 nM | 0.3 | 1590 nM | 0.5 and 0.6 | 850 nM | 4650 nM | – | CN1C(=O)C(Nc2ccccc2)=C(c2ccccc2)C1=O
> 5000 nM | 0.4 | 130 nM | 0.3 and 0.4 | 110 nM | 1420 nM | – | O=C1C(Nc2ccc(Cl)cc2)=C(c2ccccc2)C(=O)N1Cc1ccccc1
– | 1 | – | 1.1 and 0.8 | – | 70 nM | – | O=S(=O)(c1ccccc1)N(CC(F)(F)F)c1ccc(C(O)(C(F)(F)F)C(F)(F)F)cc1 [T091317]
> 5000 nM | 0.4 | 725 nM | 0.5 and 0.6 | 575 nM | 4550 nM | – | CCN1C(=O)C(Nc2ccc(Cl)cc2)=C(c2ccccc2)C1=O
> 5000 nM | 0.4 | 300 nM | 1.1 and 0.9 | 200 nM | 10200 nM | – | CCN1C(=O)C(Nc2ccc(OC)cc2)=C(c2ccccc2)C1=O
